Measured values taken from patent US20050113566A1, “Inhibitors of C-FMS kinase” (priority 2003, published 2005).

Target: c-fms (Homo sapiens, UniProt P07333)
Assay: autophosphorylation, fluorescence polarization competition immunoassay for c-fms inhibition
Format: biochemical
Details: 10 nM c-fms, 1 mM ATP; for IC50: averages of three independent measurements; for inhibition at 2 µM: at 2 μM compound
Method: The assay buffer used was 100 mM 4-(2-hydroxyethyl)piperazine 1-ethanesulfonic acid (HEPES), pH 7.5, 1 mM 1,4-dithio-DL-threitol (DTT), 0.01% (v/v) Tween-20. Compounds were diluted in assay buffer containing 4% dimethylsulfoxide (DMSO) just prior to the assay. To each well, 5 μL of compound were added followed by the addition of 3 μL of a mix containing 33 nM c-fms (Johnson & Johnson PRD) and 16.7 mM MgCl2 (Sigma) in assay buffer. The kinase reaction was initiated by adding 2 μL of 5 mM ATP (Sigma) in assay buffer. The final concentrations in the assay were 10 nM c-fms, 1 mM ATP, 5 mM MgCl2, 2% DMSO. Control reactions were ran in each plate: in positive and negative control wells, assay buffer (made 4% in DMSO) was substituted for the compound; in addition, positive control wells received 1.2 μL of 50 mM ethylenediaminetetraaceticacid (EDTA).
The plates were incubated at room temperature for 45 min. At the end of the incubation, the reaction was quenched with 1.2 μL of 50 mM EDTA (EDTA was not added to the positive control wells at this point; see above). Following a 5-min incubation, each well received 10 μL of a 1:1:3 mixture of anti-phosphotyrosine antibody, 10×, PTK green tracer, 10× (vortexed), FP dilution buffer, respectively (all from PanVera, cat. # P2837). The plate was covered, incubated for 30 min at room temperature and the fluorescence polarization was read on the Analyst. The instrument settings were: 485 nm excitation filter; 530 nm emission filter; Z height: middle of well; G factor: 0.93. […] The reported IC50 values are averages of three independent measurements.

Chain of c-fms (P07333 20-972): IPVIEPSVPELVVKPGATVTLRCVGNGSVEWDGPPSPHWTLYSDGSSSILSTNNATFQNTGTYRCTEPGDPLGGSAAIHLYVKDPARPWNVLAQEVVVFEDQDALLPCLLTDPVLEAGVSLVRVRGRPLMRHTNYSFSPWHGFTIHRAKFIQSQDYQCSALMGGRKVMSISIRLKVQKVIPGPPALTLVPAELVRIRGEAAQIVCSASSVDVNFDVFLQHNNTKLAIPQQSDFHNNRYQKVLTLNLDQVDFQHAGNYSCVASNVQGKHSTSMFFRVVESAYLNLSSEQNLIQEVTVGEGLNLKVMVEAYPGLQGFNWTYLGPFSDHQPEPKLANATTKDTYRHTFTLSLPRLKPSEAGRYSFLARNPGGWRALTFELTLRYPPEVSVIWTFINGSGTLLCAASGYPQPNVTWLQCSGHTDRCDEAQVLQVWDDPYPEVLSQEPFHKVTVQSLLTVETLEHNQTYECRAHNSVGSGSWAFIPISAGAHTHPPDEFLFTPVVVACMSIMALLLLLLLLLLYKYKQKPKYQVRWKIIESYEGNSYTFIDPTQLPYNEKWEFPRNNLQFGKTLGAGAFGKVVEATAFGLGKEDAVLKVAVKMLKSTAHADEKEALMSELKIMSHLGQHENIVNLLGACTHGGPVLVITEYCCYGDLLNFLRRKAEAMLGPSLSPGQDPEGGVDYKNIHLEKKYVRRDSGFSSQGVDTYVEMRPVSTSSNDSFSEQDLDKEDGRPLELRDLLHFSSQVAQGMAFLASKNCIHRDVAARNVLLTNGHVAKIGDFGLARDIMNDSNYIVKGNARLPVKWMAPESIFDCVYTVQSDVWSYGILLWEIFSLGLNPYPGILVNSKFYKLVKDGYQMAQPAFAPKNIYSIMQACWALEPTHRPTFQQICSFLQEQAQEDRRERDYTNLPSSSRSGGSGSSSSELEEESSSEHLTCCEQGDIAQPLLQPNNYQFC

IC50 [nM]	inhibition at 2 µM [%]	SMILES
–	13	N#Cc1ccc(C(=O)Nc2ccccc2-c2ccco2)o1
–	29	N#Cc1ccc(C(=O)Nc2ccccc2C2CCCCC2)o1

The remaining lines, values behind:

SMILES	IC50 [nM]	inhibition at 2 µM [%]
N#Cc1ccc(C(=O)Nc2ccccc2-c2ccccc2)o1	< 5000	54
N#Cc1ccc(C(=O)Nc2ccccc2C2=CCCCC2)o1	< 1000	85
N#Cc1ccc(C(=O)Nc2ccccc2-c2cccs2)o1	–	25
